{"source": "patent US20020137929A1", "about": "“1 - (3-heterocyclylphenyl) isothiourea, -isourea, -guanidine and -amidine herbicidal agents” (Intellectual Property Department, BASF Aktiengesellschaft, priority 1998, published 2002)", "key": {"[1]": {"test_system": "TRZAWR (Wheat, Winter, cv Riband)", "experiment": "Preemergence herbicidal evaluation", "assay_type": "in vivo, Triticum aestivum", "settings": "rated 4-5 weeks after treatment", "in_short": "(§1)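 Scores use a 0–9 visual scale covering stand, vigor, malformation, size and chlorosis relative to controls, rated four to five weeks after treatment. Before emergence, soil-planted seeds were sprayed with compound in aqueous acetone at roughly 0.0156–0.500 kg/ha and held in the greenhouse.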"}, "MOOVA (Monochoria)": {"test_system": "MOOVA (Monochoria)", "experiment": "Preemergence weed control under flooded paddy conditions", "assay_type": "in vivo, Monochoria vaginalis", "settings": "rated 3-4 weeks after treatment", "in_short": "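Visual injury scored 0-9 against control three to four weeks post-treatment, greenhouse-grown. Application: acetone/water (50/50) solutions dosed directly into flood water (1.5-3 cm over silt loam, planted top 0.5 cm), roughly 0.0313 to 0.500 kg/ha active ingredient.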"}, "[2]": {"test_system": "IPOHE (Morningglory, Ivyleaf)", "experiment": "Preemergence herbicidal evaluation", "assay_type": "in vivo, Ipomoea hederacea", "settings": "rated 4-5 weeks after treatment", "in_short": "as §1"}, "[3]": {"test_system": "IPOHE (Morningglory, Ivyleaf)", "experiment": "Postemergence herbicidal evaluation", "assay_type": "in vivo, Ipomoea hederacea", "settings": "postemergence", "in_short": "(§2)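 Scores (0–9) reflect plant stand, vigor, malformation, size, chlorosis and general appearance relative to control, read 4 to 5 weeks after treatment and averaged where tests were repeated. Application: about 0.0156–0.500 kg/ha sprayed at 40 psi onto two-week seedlings.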"}, "ECHCG (Barnyardgrass)": {"test_system": "ECHCG (Barnyardgrass)", "experiment": "Preemergence herbicidal evaluation", "assay_type": "in vivo, Echinochloa crus-galli", "settings": "rated 4-5 weeks after treatment", "in_short": "as §1"}, "ABUTH (Velvetleaf)": {"test_system": "ABUTH (Velvetleaf)", "experiment": "Postemergence herbicidal evaluation", "assay_type": "in vivo, Abutilon theophrasti", "settings": "postemergence", "in_short": "as §2"}, "[4]": {"test_system": "ECHORC (Watergrass (Calif.))", "experiment": "Preemergence weed control under flooded paddy conditions", "assay_type": "in vivo, Echinochloa oryzoides", "settings": "rated 3-4 weeks after treatment", "in_short": "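Ratings on a 0-9 visual scale cover stand, vigor, malformation, size, chlorosis and overall appearance relative to a control, taken three to four weeks post-treatment. Application was into flood water over freshly sown silt loam at roughly 0.0313 to 0.500 kg/ha.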"}, "SETVI (Foxtail, Green)": {"test_system": "SETVI (Foxtail, Green)", "experiment": "Preemergence herbicidal evaluation", "assay_type": "in vivo, Setaria viridis", "settings": "rated 4-5 weeks after treatment", "in_short": "as §1"}, "[5]": {"test_system": "TRZAWR (Wheat, Winter, cv Riband)", "experiment": "Postemergence herbicidal evaluation", "assay_type": "in vivo, Triticum aestivum", "settings": "postemergence", "in_short": "as §2"}, "ORYSAT (Rice, Tebonnet)": {"test_system": "ORYSAT (Rice, Tebonnet)", "experiment": "Preemergence herbicidal evaluation", "assay_type": "in vivo, Oryza sativa, (L.) Tebonnet", "settings": "rated 4-5 weeks after treatment", "in_short": "as §1"}, "[6]": {"test_system": "CHEAL (Lambsquarters, Common)", "experiment": "Preemergence herbicidal evaluation", "assay_type": "in vivo, Chenopodium album", "settings": "rated 4-5 weeks after treatment", "in_short": "as §1"}}, "data": [{"molecule": "CCN1C(=O)CSC1=Nc1cc(-n2c(=O)cc(C(F)(F)F)n(C)c2=O)c(F)cc1Cl", "note": "[Compound 159, 3-{4-Chloro-5-[(3-ethyl-4-oxo-2-thiazolidinyl-idene)amino]-2-fluorophenyl}-1-methyl-6-(trifluoromethyl)-2,4(1H,3H)-pyrimidinedione]", "values": [{"measurement": "Preemergence herbicidal rating TRZAWR", "setting": "[1]; 0.0156 kg/ha", "result": 0.0}, {"measurement": "Preemergence herbicidal rating TRZAWR", "setting": "[1]; 0.0313 kg/ha", "result": 0.0}, {"measurement": "Preemergence herbicidal rating TRZAWR", "setting": "[1]; 0.0625 kg/ha", "result": 0.0}, {"measurement": "Preemergence herbicidal rating TRZAWR", "setting": "[1]; 0.1250 kg/ha", "result": 1.0}, {"measurement": "Preemergence herbicidal rating TRZAWR", "setting": "[1]; 0.2500 kg/ha", "result": 3.0}, {"measurement": "herbicidal effect rating, MOOVA", "setting": "MOOVA (Monochoria); 0.0313 kg/ha", "result": 0.0}, {"measurement": "herbicidal effect rating, MOOVA", "setting": "MOOVA (Monochoria); 0.0625 kg/ha", "result": 3.0}, {"measurement": "herbicidal effect rating, MOOVA", "setting": "MOOVA (Monochoria); 0.1250 kg/ha", "result": 6.0}, {"measurement": "herbicidal effect rating, MOOVA", "setting": "MOOVA (Monochoria); 0.2500 kg/ha", "result": 9.0}, {"measurement": "Preemergence herbicidal rating IPOHE", "setting": "[2]; 0.0156 kg/ha", "result": 0.0}, {"measurement": "Preemergence herbicidal rating IPOHE", "setting": "[2]; 0.0313 kg/ha", "result": 2.0}, {"measurement": "Preemergence herbicidal rating IPOHE", "setting": "[2]; 0.0625 kg/ha", "result": 9.0}, {"measurement": "Preemergence herbicidal rating IPOHE", "setting": "[2]; 0.1250 kg/ha", "result": 7.0}, {"measurement": "Preemergence herbicidal rating IPOHE", "setting": "[2]; 0.2500 kg/ha", "result": 9.0}, {"measurement": "Herbicidal rating IPOHE", "setting": "[3]; rate 0.0156 kg/ha", "result": 9.0}, {"measurement": "Herbicidal rating IPOHE", "setting": "[3]; rate 0.0313 kg/ha", "result": 9.0}, {"measurement": "Herbicidal rating IPOHE", "setting": "[3]; rate 0.0625 kg/ha", "result": 9.0}, {"measurement": "Preemergence herbicidal rating ECHCG", "setting": "ECHCG (Barnyardgrass); 0.0156 kg/ha", "result": 0.0}, {"measurement": "Preemergence herbicidal rating ECHCG", "setting": "ECHCG (Barnyardgrass); 0.0313 kg/ha", "result": 1.0}, {"measurement": "Preemergence herbicidal rating ECHCG", "setting": "ECHCG (Barnyardgrass); 0.0625 kg/ha", "result": 0.0}, {"measurement": "Preemergence herbicidal rating ECHCG", "setting": "ECHCG (Barnyardgrass); 0.1250 kg/ha", "result": 2.0}, {"measurement": "Preemergence herbicidal rating ECHCG", "setting": "ECHCG (Barnyardgrass); 0.2500 kg/ha", "result": 3.0}, {"measurement": "Herbicidal rating ABUTH", "setting": "ABUTH (Velvetleaf); rate 0.0156 kg/ha", "result": 9.0}, {"measurement": "Herbicidal rating ABUTH", "setting": "ABUTH (Velvetleaf); rate 0.0313 kg/ha", "result": 9.0}, {"measurement": "Herbicidal rating ABUTH", "setting": "ABUTH (Velvetleaf); rate 0.0625 kg/ha", "result": 9.0}, {"measurement": "herbicidal effect rating, ECHORC", "setting": "[4]; 0.0313 kg/ha", "result": 2.0}, {"measurement": "herbicidal effect rating, ECHORC", "setting": "[4]; 0.0625 kg/ha", "result": 4.0}, {"measurement": "herbicidal effect rating, ECHORC", "setting": "[4]; 0.1250 kg/ha", "result": 5.0}, {"measurement": "herbicidal effect rating, ECHORC", "setting": "[4]; 0.2500 kg/ha", "result": 7.0}, {"measurement": "Preemergence herbicidal rating SETVI", "setting": "SETVI (Foxtail, Green); 0.0156 kg/ha", "result": 1.0}, {"measurement": "Preemergence herbicidal rating SETVI", "setting": "SETVI (Foxtail, Green); 0.0313 kg/ha", "result": 8.0}, {"measurement": "Preemergence herbicidal rating SETVI", "setting": "SETVI (Foxtail, Green); 0.0625 kg/ha", "result": 7.0}, {"measurement": "Preemergence herbicidal rating SETVI", "setting": "SETVI (Foxtail, Green); 0.1250 kg/ha", "result": 9.0}, {"measurement": "Preemergence herbicidal rating SETVI", "setting": "SETVI (Foxtail, Green); 0.2500 kg/ha", "result": 7.0}, {"measurement": "Herbicidal rating TRZAWR", "setting": "[5]; rate 0.0156 kg/ha", "result": 2.5}, {"measurement": "Herbicidal rating TRZAWR", "setting": "[5]; rate 0.0313 kg/ha", "result": 3.5}, {"measurement": "Herbicidal rating TRZAWR", "setting": "[5]; rate 0.0625 kg/ha", "result": 3.5}, {"measurement": "Preemergence herbicidal rating ORYSAT", "setting": "ORYSAT (Rice, Tebonnet); 0.0156 kg/ha", "result": 0.0}, {"measurement": "Preemergence herbicidal rating ORYSAT", "setting": "ORYSAT (Rice, Tebonnet); 0.0313 kg/ha", "result": 0.0}, {"measurement": "Preemergence herbicidal rating ORYSAT", "setting": "ORYSAT (Rice, Tebonnet); 0.0625 kg/ha", "result": 0.0}, {"measurement": "Preemergence herbicidal rating ORYSAT", "setting": "ORYSAT (Rice, Tebonnet); 0.1250 kg/ha", "result": 1.0}, {"measurement": "Preemergence herbicidal rating ORYSAT", "setting": "ORYSAT (Rice, Tebonnet); 0.2500 kg/ha", "result": 2.0}, {"measurement": "Preemergence herbicidal rating CHEAL", "setting": "[6]; 0.0156 kg/ha", "result": 7.0}, {"measurement": "Preemergence herbicidal rating CHEAL", "setting": "[6]; 0.0313 kg/ha", "result": 9.0}, {"measurement": "Preemergence herbicidal rating CHEAL", "setting": "[6]; 0.0625 kg/ha", "result": 8.0}, {"measurement": "Preemergence herbicidal rating CHEAL", "setting": "[6]; 0.1250 kg/ha", "result": 9.0}, {"measurement": "Preemergence herbicidal rating CHEAL", "setting": "[6]; 0.2500 kg/ha", "result": 9.0}]}]}
